The values that follow come from ChEMBL document CHEMBL1137022, “The Ssk1p response regulator and Chk1p histidine kinase mutants of Candida albicans are hypersensitive to fluconazole and voriconazole” (Antimicrob Agents Chemother, 2007).

As usually defined, the MIC is the lowest concentration that inhibits growth of the organism. Low readings indicate a more susceptible organism, high ones a less susceptible organism.

Converted amounts (≈) assume the structure as drawn. The source made the active and inactive calls. The rule behind the calls is not given here.

Data set [1] has as its system Candida albicans. Description: Fungistatic activity against Candida albicans SSK23 after 24 to 48 hrs by broth microdilution assay. The data set is classed as functional. On the technique in general: Broth dilution looks for growth in wells or tubes with falling amounts of substance.
Data set [2] concerns Candida albicans. The data set is described as follows: Fungistatic activity against Candida albicans SSK21 after 24 to 48 hrs by broth microdilution assay. It is filed as functional.
The test system of data set [3] is Candida albicans. The data set is described as follows: Fungicidal activity against Candida albicans CHK21 assessed as reduction in cell viability at 4 times MIC after 24 hrs. It is filed as functional, organism-based.
Data set [4] deals with Candida albicans. Description: Fungicidal activity against wild type Candida albicans CAF2-1 assessed as reduction in cell viability at MIC of SSK21/CHK21 after 24 hrs. It is filed as functional, organism-based.
Data set [5] relates to Candida albicans. Description: Fungicidal activity against Candida albicans CHK23 assessed as reduction in cell viability at MIC of SSK21/CHK21 after 24 hrs. The data set is classed as functional, organism-based.
The test system of data set [6] is Candida albicans. The data set is described as follows: Fungicidal activity against Candida albicans CHK23 assessed as reduction in cell viability at 4 times MIC of SSK21/CHK21 after 24 hrs. The data set is classed as functional, organism-based.
The test system of data set [7] is Candida albicans. Description: Fungistatic activity against Candida albicans SLN1 HK mutant after 24 to 48 hrs by broth microdilution assay. It is filed as functional, organism-based.
The subject of data set [8] is Candida albicans. Description: Fungistatic activity against wild type Candida albicans CAF2-1 after 24 to 48 hrs by broth microdilution assay. The data set is classed as functional.
In data set [9] the test system is Candida albicans. The data set is described as follows: Fungicidal activity against Candida albicans SSK21 assessed as reduction in cell viability at MIC after 24 hrs. It is filed as functional, organism-based.
For data set [10], the system named is Candida albicans. The data set is described as follows: Fungicidal activity against Candida albicans CHK21 assessed as reduction in cell viability at MIC after 24 hrs. The data set is classed as functional, organism-based.
Data set [11] deals with Candida albicans. Description: Fungistatic activity against Candida albicans CHK21 after 24 to 48 hrs by broth microdilution assay. The data set is classed as functional.
In data set [12] the test system is Candida albicans. Description: Fungicidal activity against Candida albicans SSK21 assessed as reduction in cell viability at 4 times MIC after 24 hrs. The data set is classed as functional, organism-based.
In data set [13] the test system is Candida albicans. The data set is described as follows: Fungicidal activity against Candida albicans SSK23 assessed as reduction in cell viability at 4 times MIC of SSK21/CHK21 after 24 hrs. It is filed as functional, organism-based.
In data set [14] the test system is Candida albicans. The data set is described as follows: Fungistatic activity against Candida albicans CHK23 after 24 to 48 hrs by broth microdilution assay. The data set is classed as functional.
For data set [15], the system named is Candida albicans. The data set is described as follows: Fungicidal activity against wild type Candida albicans CAF2-1 assessed as reduction in cell viability at 4 times MIC of SSK21/CHK21 after 24 hrs. It is filed as functional, organism-based.
Data set [16] concerns Candida albicans. The data set is described as follows: Fungistatic activity against Candida albicans SKN7 mutant after 24 to 48 hrs by broth microdilution assay. The data set is classed as functional, organism-based.
Data set [17] relates to Candida albicans. The data set is described as follows: Fungicidal activity against Candida albicans SSK23 assessed as reduction in cell viability at MIC of SSK21/CHK21 after 24 hrs. The data set is classed as functional, organism-based.
For data set [18], the system named is Candida albicans. The data set is described as follows: Ratio of MIC for Candida albicans CHK21 to MIC for Candida albicans SSK21. It is filed as functional.
The test system of data set [19] is Candida albicans. Description: Drug uptake in Candida albicans SSK21 at 3.6 ng/ml after 1 hrs by liquid scintillation counting relative to wild type Candida albicans CAF2-1. It is filed as ADME, organism-based.

With `C[C@@H](c1ncncc1F)[C@](O)(Cn1cncn1)c1ccc(F)cc1F` [VORICONAZOLE], the MIC was determined as 0.064 mg/L (≈ 0.183 µM) in data set [1]; 0.008 mg/L (≈ 0.0229 µM) in data set [2]; 0.5 mg/L (≈ 1.43 µM) in [8]; 0.015 mg/L (≈ 0.0429 µM) in [11]; 1 mg/L (≈ 2.86 µM) in data set [14]. The outcome in [3], in data set [6], in [7], in data set [12], in data set [13] and in data set [15] was Active. For the same molecule, the result in data set [16] was Active. Moreover, the result in [4], in data set [5], in data set [9], in data set [10] and in [17] was inactive.

Turning to `CC(=O)N1CCN(c2ccc(OCC3COC(Cn4ccnc4)(c4ccc(Cl)cc4Cl)O3)cc2)CC1` (configuration not stated), the outcome in data set [2] and in data set [11] was Active.

Regarding `CC[C@H](C)C[C@H](C)CCCCCCCCC(=O)N[C@H]1C[C@@H](O)[C@@H](NCCN)NC(=O)[C@@H]2[C@@H](O)CCN2C(=O)[C@H]([C@H](O)CCN)NC(=O)[C@H]([C@H](O)[C@@H](O)c2ccc(O)cc2)NC(=O)[C@@H]2C[C@@H](O)CN2C(=O)[C@H]([C@@H](C)O)NC1=O`, the outcome in [2] and in [11] was Active.

Turning to `OC(Cn1cncn1)(Cn1cncn1)c1ccc(F)cc1F` [FLUCONAZOLE], the MIC came to 0.25 mg/L (≈ 0.816 µM) in [1]; 0.032 mg/L (≈ 0.104 µM) in data set [2]; 16 mg/L (≈ 52.2 µM) in [8]; 1 mg/L (≈ 3.27 µM) in [11]; 16 mg/L (≈ 52.2 µM) in data set [14]. The outcome in data set [3], in [6], in data set [12], in [13] and in data set [15] was Active. In addition, the outcome in [4], in data set [5], in [9], in data set [10] and in [17] was inactive. Further, the Ratio in data set [18] is listed as 30.

For `Clc1ccc(COC(Cn2ccnc2)c2ccc(Cl)cc2Cl)c(Cl)c1` (configuration not stated), the outcome in [2] and in data set [11] was Active.

`[3H]OC(Cn1cncn1)(Cn1cncn1)c1ccc(F)cc1F` [[3H]FLUCONAZOLE]: the “fold change (FC)” value in data set [19] is recorded as 2.

For `C[C@@H]1[C@H](O)[C@@H](C)/C=C/C=C/C=C/C=C/C=C/C=C/C=C/[C@H](O[C@@H]2O[C@H](C)[C@@H](O)[C@H](N)[C@@H]2O)C[C@@H]2O[C@](O)(C[C@@H](O)C[C@@H](O)[C@H](O)CC[C@@H](O)C[C@@H](O)CC(=O)O[C@H]1C)C[C@H](O)[C@H]2C(=O)O`, the outcome in data set [2] and in [11] was Active.
